{"source": "patent US8377990B2", "about": "“Conjugates comprising a psychotropic drug or a GABA agonist and an organic acid and their use in treating pain and other CNS disorders” (Ramot at Tel-Aviv University Ltd., priority 2006, dated 2013)", "key": {"Male Balb-c mice": {"system": "Male Balb-c mice", "assay": "Hot plate test, latency of the nociceptive reaction to heat", "format": "in vivo", "conditions": "for antinociceptive activity (latency to heat): entire period"}, "Wistar rats": {"system": "Wistar rats", "conditions": "high doses of fluoxetine; Omar et al. Pharmacol. Res. 49 (2004) 119-131; cited from earlier work"}, "[1]": {"conditions": "treated orally for 5 consecutive days, AN-214 0.2 mg/kg or equivalent molar dose of AN-216, FIG. 7"}}, "note": "Entries after “also recorded” stand apart in the source; their conditions may differ.", "data": [{"compound": "2-Propyl-pentanoic acid (valproic acid) 4-aminobutyryloxymethyl ester hydrochloride [AN-216]", "values": [{"measurement": "antinociceptive activity (latency to heat)", "setting": "Male Balb-c mice; [1]", "result": "no antinociceptive activity was detected"}]}, {"compound": "Cl.NCCCC(=O)OCOC(=O)CCCN", "note": "[AN-214, 4-Amino-butyric acid 4-amino-butyryloxymethyl ester dihydrochloride]", "values": [{"measurement": "antinociceptive activity (latency to heat)", "setting": "Male Balb-c mice; [1]", "result": "no antinociceptive activity was detected"}]}, {"compound": "NCCCC(=O)O", "note": "[GABA, γ-aminobutyric acid]", "values": [{"measurement": "latency in response to heat sensation", "setting": "Male Balb-c mice; GABA 2.39 mg/kg, >10-folds higher dose than the conjugate, FIG. 6", "result": "had no activity"}, {"measurement": "antinociceptive activity (latency to heat)", "setting": "Male Balb-c mice; GABA orally for 5 consecutive days, three different doses, FIG. 8", "result": "No antinociceptive activity was detected"}]}, {"compound": "CNCCC(Oc1ccc(C(F)(F)F)cc1)c1ccccc1", "note": "(centres unmarked) [fluoxetine]", "values": [{"measurement": "antinociceptive effect (latency to heat) during repeated treatment", "setting": "Male Balb-c mice; repeated oral treatment daily for 11 days, fluoxetine 10 mg/kg or equimolar conjugate, FIGS. 5B-E", "result": "significantly better antinociceptive effect compared to untreated animals"}, {"measurement": "response to heat sensation prior to daily treatment", "setting": "Male Balb-c mice; repeated oral treatment daily for 11 days, fluoxetine 10 mg/kg or equimolar conjugate, tested at days 3, 7, 9 and 11, vs vehicle, FIG. 5A", "result": "A delay was noted only on day 11"}, {"measurement": "oedema response in rats", "setting": "Wistar rats", "result": "previously shown to reduce oedema response in rats"}]}, {"compound": "CNCCC=C1c2ccccc2CCc2ccccc21", "note": "[nortriptyline]", "values": [{"measurement": "latency of response to heat", "setting": "Male Balb-c mice; p.o. 0.25 mg/kg nortriptyline or equimolar conjugate (0.32 mg/kg), 4 hours following treatment, vs untreated mice, FIG. 2A", "result": "increased significantly the latency of response compared to untreated mice"}, {"measurement": "latency of response to heat, onset", "setting": "Male Balb-c mice; p.o. 0.5 mg/kg nortriptyline, time course, vs vehicle, FIG. 2B", "result": "significant latency, (compared to vehicle treated animals), after 4 hours only"}, {"measurement": "latency of response to heat", "setting": "Male Balb-c mice; single p.o. dose, 0.5 mg/kg nortriptyline or equimolar dose of conjugate, two hours after administration, FIG. 1, 0.5 mg/kg", "result": "significantly less effective; also recorded: did not differ significantly (p>0.05) from control mice"}, {"measurement": "latency of response to heat", "setting": "Male Balb-c mice; single p.o. dose, 4.5 mg/kg nortriptyline or equimolar dose of conjugate, two hours after administration, vs vehicle, p<0.05, FIG. 1", "result": "significant delay in the response compared to control mice"}]}]}
